≈ marks a conversion by molar mass, not a printed value. Where two headings read alike, the source gives them in different places.
Columns and labels:
Assay type in all cases: cell-based
K. pneumoniae 1705949 = experiment: MIC, microtiter-based liquid assay (CLSI); details: Klebsiella pneumoniae, MDR strain
[1] = system: E. faecium A6349 VanA + LNZ-R; experiment: MIC, microtiter-based liquid assay (CLSI); details: Enterococcus faecium
[2] = system: S. pneumoniae 02J1175 Mef(A); experiment: MIC, microtiter-based liquid assay (CLSI); details: Streptococcus pneumoniae
E. coli CAG12184 TolC = experiment: MIC, microtiter-based liquid assay (CLSI); details: Escherichia coli, CAG12184TOLC
P. aeruginosa ATCC27853 = experiment: MIC, microtiter-based liquid assay (CLSI); details: Pseudomonas aeruginosa
B. mallei = experiment: microbe, parasite or virus in culture; details: Burkholderia mallei; for MIC50: read-out: B. mallei MIC50; for MIC90: read-out: B. mallei MIC90; for MIC: read-out: B. mallei MIC Range
B. pseudomallei = experiment: microbe, parasite or virus in culture; details: Burkholderia pseudomallei; for MIC50: read-out: B. pseudomallei MIC50; for MIC90: read-out: B. pseudomallei MIC90; for MIC: read-out: B. pseudomallei MIC Range
B. anthracis = experiment: microbe, parasite or virus in culture; details: Bacillus anthracis; for MIC50: read-out: B. anthracis MIC50; for MIC90: read-out: B. anthracis MIC90; for MIC: read-out: B. anthracis MIC Range
P. aeruginosa 1705886 = experiment: MIC, microtiter-based liquid assay (CLSI); details: Pseudomonas aeruginosa
Y. pestis = experiment: microbe, parasite or virus in culture; details: Yersinia pestis; for MIC50: read-out: Y. pestis MIC50; for MIC90: read-out: Y. pestis MIC90; for MIC: read-out: Y. pestis MIC Range
S. aureus 11540 MRSA = experiment: MIC, microtiter-based liquid assay (CLSI); details: Staphylococcus aureus
E. coli 1705878 = experiment: MIC, microtiter-based liquid assay (CLSI); details: Escherichia coli, MDR strain
E. coli ATCC25922 = experiment: MIC, microtiter-based liquid assay (CLSI); details: Escherichia coli
A. baumannii 1705943 = experiment: MIC, microtiter-based liquid assay (CLSI); details: Acinetobacter baumannii
P. aeruginosa 1705904 = experiment: MIC, microtiter-based liquid assay (CLSI); details: Pseudomonas aeruginosa, MDR strain
E. coli MG1655 parent = experiment: MIC, microtiter-based liquid assay (CLSI); details: Escherichia coli
A. baumannii 1705936 = experiment: MIC, microtiter-based liquid assay (CLSI); details: Acinetobacter baumannii, MDR strain
K. pneumoniae 1705966 = experiment: MIC, microtiter-based liquid assay (CLSI); details: Klebsiella pneumoniae
F. tularensis = experiment: microbe, parasite or virus in culture; details: Francisella tularensis; for MIC50: read-out: F. tularensis MIC50; for MIC90: read-out: F. tularensis MIC90; for MIC: read-out: F. tularensis MIC Range
[3] = ATCC25922, read-out: MIC E. coli ATCC25922 + 50% HS
[4] = ATCC25922, read-out: MIC E. coli ATCC25922

| SMILES | MIC (K. pneumoniae 1705949) | MIC [1] | MIC [2] | MIC (E. coli CAG12184 TolC) | MIC (P. aeruginosa ATCC27853) | MIC50 (B. mallei) | MIC90 (B. mallei) | MIC (B. mallei) | MIC50 (B. pseudomallei) | MIC90 (B. pseudomallei) | MIC50 (B. anthracis) | MIC90 (B. anthracis) | MIC (B. anthracis) | MIC (P. aeruginosa 1705886) | MIC50 (Y. pestis) | MIC90 (Y. pestis) | MIC (S. aureus 11540 MRSA) | MIC (E. coli 1705878) | MIC (E. coli ATCC25922; [3]) | MIC (E. coli ATCC25922; [4]) | further results |
| --- | --- | --- | --- | --- | --- | --- | --- | --- | --- | --- | --- | --- | --- | --- | --- | --- | --- | --- | --- | --- | --- |
| C[C@H](NCCCNC(=N)N)c1ccc(-n2cc3cc(-c4cc(CCC[C@@H](N)CO)cc(Cl)c4F)[nH]c3nc2=O)cc1 [Compound 5] | 0.5 µg/mL (≈ 0.857 µM) | 1 µg/mL | 0.125 µg/mL (≈ 0.214 µM) | 0.06 µg/mL (≈ 0.103 µM) | 4 µg/mL (≈ 6.86 µM) | 0.06 µg/mL (≈ 0.103 µM) | 0.25 µg/mL (≈ 0.429 µM) | 0.03 to 0.5 µg/mL (≈ 0.0514 to 0.857 µM) | 16 µg/mL (≈ 27.4 µM) | 16 µg/mL (≈ 27.4 µM) | 0.12 µg/mL (≈ 0.206 µM) | 0.12 µg/mL (≈ 0.206 µM) | 0.03 to 2 µg/mL (≈ 0.0514 to 3.43 µM) | 4 µg/mL (≈ 6.86 µM) | 0.25 µg/mL (≈ 0.429 µM) | 0.5 µg/mL (≈ 0.857 µM) | 0.125 µg/mL (≈ 0.214 µM) | 2 µg/mL (≈ 3.43 µM) | 0.25 µg/mL | 0.125 µg/mL (≈ 0.214 µM) | MIC (Y. pestis): 0.03 to 2 µg/mL (≈ 0.0514 to 3.43 µM); MIC (A. baumannii 1705943): 0.25 µg/mL (≈ 0.429 µM); MIC (P. aeruginosa 1705904): 8 µg/mL (≈ 13.7 µM); MIC (E. coli MG1655 parent): 0.5 µg/mL (≈ 0.857 µM); MIC (A. baumannii 1705936): 2 µg/mL (≈ 3.43 µM); MIC (K. pneumoniae 1705966): 0.125 µg/mL (≈ 0.214 µM); MIC50 (F. tularensis): ≤ 0.03 µg/mL; MIC90 (F. tularensis): ≤ 0.03 µg/mL; MIC (F. tularensis): 0.03 to 0.25 µg/mL (≈ 0.0514 to 0.429 µM) |
| COC[C@H](N)CCCc1cc(Cl)c(F)c(-c2cc3cn(-c4ccc(CNCCCNC(=N)N)cc4)c(=O)nc3[nH]2)c1 [Compound 6] | 2 µg/mL (≈ 3.43 µM) | 4 µg/mL | 0.25 µg/mL (≈ 0.429 µM) | 0.25 µg/mL (≈ 0.429 µM) | 8 µg/mL (≈ 13.7 µM) | ≤ 0.03 µg/mL | 0.12 µg/mL (≈ 0.206 µM) | 0.03 to 0.5 µg/mL (≈ 0.0514 to 0.857 µM) | 8 µg/mL (≈ 13.7 µM) | 16 µg/mL (≈ 27.4 µM) | 0.5 µg/mL (≈ 0.857 µM) | 0.5 µg/mL (≈ 0.857 µM) | 0.06 to 1 µg/mL (≈ 0.103 to 1.71 µM) | 4 µg/mL (≈ 6.86 µM) | 0.25 µg/mL (≈ 0.429 µM) | > 16 µg/mL | 0.25 µg/mL (≈ 0.429 µM) | 1 µg/mL (≈ 1.71 µM) | 0.25 µg/mL | 0.5 µg/mL (≈ 0.857 µM) | MIC (B. pseudomallei): 1 to 32 µg/mL (≈ 1.71 to 54.9 µM); MIC (A. baumannii 1705943): 0.25 µg/mL (≈ 0.429 µM); MIC (P. aeruginosa 1705904): 8 µg/mL (≈ 13.7 µM); MIC (E. coli MG1655 parent): 0.25 µg/mL (≈ 0.429 µM); MIC (A. baumannii 1705936): 4 µg/mL (≈ 6.86 µM); MIC (K. pneumoniae 1705966): 0.5 µg/mL (≈ 0.857 µM); MIC50 (F. tularensis): ≤ 0.03 µg/mL; MIC90 (F. tularensis): 0.06 µg/mL (≈ 0.103 µM); MIC (F. tularensis): 0.03 to 1 µg/mL (≈ 0.0514 to 1.71 µM) |
| C=C[C@H](NCCCNC(=N)N)c1ccc(-n2cc3cc(-c4cc(CCC[C@H](C)N)cc(Cl)c4F)[nH]c3nc2=O)cc1 [Compound 10] | 0.5 µg/mL (≈ 0.863 µM) | 0.5 µg/mL | 0.25 µg/mL (≈ 0.432 µM) | 0.25 µg/mL (≈ 0.432 µM) | 4 µg/mL (≈ 6.91 µM) | ≤ 0.03 µg/mL | 0.12 µg/mL (≈ 0.207 µM) | 0.03 to 0.25 µg/mL (≈ 0.0518 to 0.432 µM) | 1 µg/mL (≈ 1.73 µM) | 2 µg/mL (≈ 3.45 µM) | 0.12 µg/mL (≈ 0.207 µM) | 0.25 µg/mL (≈ 0.432 µM) | 0.03 to 0.25 µg/mL (≈ 0.0518 to 0.432 µM) | 2 µg/mL (≈ 3.45 µM) | ≤ 0.03 µg/mL | 0.06 µg/mL (≈ 0.104 µM) | 0.25 µg/mL (≈ 0.432 µM) | 0.5 µg/mL (≈ 0.863 µM) | 0.25 µg/mL | 0.25 µg/mL (≈ 0.432 µM) | MIC (B. pseudomallei): 0.25 to 8 µg/mL (≈ 0.432 to 13.8 µM); MIC (Y. pestis): 0.03 to 0.25 µg/mL (≈ 0.0518 to 0.432 µM); MIC (A. baumannii 1705943): 0.25 µg/mL (≈ 0.432 µM); MIC (P. aeruginosa 1705904): 4 µg/mL (≈ 6.91 µM); MIC (E. coli MG1655 parent): 0.25 µg/mL (≈ 0.432 µM); MIC (A. baumannii 1705936): 2 µg/mL (≈ 3.45 µM); MIC (K. pneumoniae 1705966): 0.25 µg/mL (≈ 0.432 µM); MIC50 (F. tularensis): ≤ 0.03 µg/mL; MIC90 (F. tularensis): 0.06 µg/mL (≈ 0.104 µM); MIC (F. tularensis): 0.03 to 4 µg/mL (≈ 0.0518 to 6.91 µM) |
| C=C[C@@H](NCCCNC(=N)N)c1ccc(-n2cc3cc(-c4cc(CCC[C@H](C)N)cc(Cl)c4F)[nH]c3nc2=O)cc1 [Compound 11] | 8 µg/mL (≈ 13.8 µM) | 4 µg/mL | 2 µg/mL (≈ 3.45 µM) | 0.25 µg/mL (≈ 0.432 µM) | 4 µg/mL (≈ 6.91 µM) | ≤ 0.03 µg/mL | 0.12 µg/mL (≈ 0.207 µM) | 0.03 to 0.25 µg/mL (≈ 0.0518 to 0.432 µM) | 1 µg/mL (≈ 1.73 µM) | 4 µg/mL (≈ 6.91 µM) | 0.25 µg/mL (≈ 0.432 µM) | 0.5 µg/mL (≈ 0.863 µM) | 0.12 to 0.5 µg/mL (≈ 0.207 to 0.863 µM) | 4 µg/mL (≈ 6.91 µM) | ≤ 0.03 µg/mL | 0.12 µg/mL (≈ 0.207 µM) | 0.5 µg/mL (≈ 0.863 µM) | 0.5 µg/mL (≈ 0.863 µM) | 0.5 µg/mL | 0.25 µg/mL (≈ 0.432 µM) | MIC (B. pseudomallei): 0.25 to 8 µg/mL (≈ 0.432 to 13.8 µM); MIC (Y. pestis): 0.03 to 0.5 µg/mL (≈ 0.0518 to 0.863 µM); MIC (A. baumannii 1705943): 0.25 µg/mL (≈ 0.432 µM); MIC (P. aeruginosa 1705904): 8 µg/mL (≈ 13.8 µM); MIC (E. coli MG1655 parent): 0.25 µg/mL (≈ 0.432 µM); MIC (A. baumannii 1705936): 1 µg/mL (≈ 1.73 µM); MIC (K. pneumoniae 1705966): 1 µg/mL (≈ 1.73 µM); MIC50 (F. tularensis): 0.06 µg/mL (≈ 0.104 µM); MIC90 (F. tularensis): 0.25 µg/mL (≈ 0.432 µM); MIC (F. tularensis): 0.03 to 4 µg/mL (≈ 0.0518 to 6.91 µM) |

Source: patent US9937183B2, “Antimicrobial compounds and methods of making and using the same” (priority 2013, dated 2018)
